Where two headings read alike, the source gives them in different places.
Experiments:
[1] = In vivo pharmacokinetic study after oral WSE; settings: for AUC(0-inf) / AUC(0-t) / Cmax / MRT inf / Tmax / half-life / k el: male, Sprague Dawley
From the text: It is known that the hydrophobic interior surface of the cell membrane (lipid bilayer) serves as a barrier to the passage of polar and high molecular weight molecules.
Food pellets and tap water were provided ad libitum throughout the experimentation. The protocol to carry out in vivo pharmacokinetics was approved by The Institutional Animal Ethics Committee (IAEC) of Crystal Biological Solution, Pune, Maharashtra, India. […] Eighteen animals were subdivided into three groups, (n = 6) animals in each group. Withania somnifera extract suspension was prepared in water for oral administration, and the dose was calculated based on the acute oral toxicity study (500 mg/kg; single dose). […] The separated plasma samples were transferred into Eppendorf tubes and stored at −80 °C in a deep freezer until analysis. Ten pharmacokinetic parameters were determined using PK solver 2.0, USA [45, 46, 47]. The maximum observed concentration (Cmax) and maximum observed time (Tmax) were calculated directly from the experimental results. The elimination rate constant (Kel) was calculated from the slope of the linear regression of Log concentrations as a function of time. […] The area under the curve (AUC(0–t)) was calculated from the linear curve following the trapezoidal rule, while AUC(0–∞) was calculated by adding Ct/λ, with Ct being the final measurable concentration. Oral clearance (Cl/F) was obtained from the equation Cl/F = dose/AUC(0–∞). Mean residence time (MRT) was calculated as AUMC(0–∞)/AUC(0–∞), where AUMC(0–∞) is the area under the first moment curve. […] The pharmacokinetic parameters as the average of six rats ± SD. The mean plasma concentration Vs. time curve (mean ± SD) was prepared using Prism 8.2, (GraphPad, San Diego, CA, USA).

[2] = male rats, cited from earlier work
[3] = Balb/C mice, 4 mg/kg single intraperitoneal; cited from earlier work
[4] = mice, oral Withania somnifera aqueous extract 1000 mg/kg; cited from earlier work
[5] = Stability of analytes in rat plasma; settings: n = 6; for Processed sample stability (% ± SD): processed rat plasma sample, 4 h; for Bench top Stability (% ± SD): 25 °C for 4 h; for Freeze-thaw stability (% ± SD): three freeze/thaw cycles
Procedure: Six replicates of quality control samples were analyzed at four concentration levels (LLOQ, LQC, MQC, and HQC; n = 6) on the same day (intra-day) and repeated for three consecutive days (inter-day) (Table S2). The precision was expressed as the relative standard deviation (% RSD), and accuracy was reported as the relative error (% RE). Later, these samples were analyzed for stability testing under the following conditions: three complete freeze/thaw cycles (−80 °C to 25 °C), long-term sample storage (−80 °C for 60 days), processed sample, and bench-top (25 °C for 4 h).

[6] = Ex vivo permeability study, everted rat intestine apparatus
From the text: (§1) The everted intestinal segment was mounted on the apparatus and setting it in the beaker. The internal surface of the glass tubes serves as the mucosal compartment, and the beaker serves as the serosal compartment. Animals were humanly sacrificed by cervical dislocation followed by a midline incision. The abdominal cavity was opened carefully, and the intestine was maneuvered to identify the ileocecal junction. A 7 cm long intestinal segment distant to the ileocecal junction (5–6 cm) was excised by carefully removing the mesenteric attachments without causing any damage to the intestinal architecture. The segment was cleaned using the Kreb’s Ringer Bicarbonate (KRB) buffer medium and was stored in KRB buffer in a petri dish. The cleaned segment was then everted gently using a glass rod. Finally, a 3 cm long intestinal segment was used to perform the permeability study [49, 50].
(§2) The tissue was mounted on the apparatus and was placed in a 1000 mL beaker containing 2 mg/mL WSE suspension. The intestinal segment was perfused from the mucosal end using the KRB buffer. The apparatus (beaker with tissue) was placed on the magnetic stirrer followed by continuous stirring using a magnetic bead at 25 rpm to mimic the peristaltic movement of the stomach at 37 °C with appropriate aeration. The sample collection at different time points was carried out every 5 min interval for 1 h. The collected samples were further diluted and analyzed using LC-MS/MS.
(§3) The sample was diluted to 20-fold in ACN and injected 2 µL into LC-MS/MS. Samples were stored at −20 °C until analysis using validated UHPLC-MS/MS. The permeability was obtained by plotting the cumulative amount transported (ng) across the gut sac against time (second).
(§4) The calculation of apparent permeability (Papp) was carried out using the following Equation (1):Papp = dQ/dt × 1/A × C0(1) where Papp: apparent permeability co-efficient; dQ/dt: the cumulative amount of drug (Q) appearing in the acceptor (serosal) compartment as a function of time and was obtained from the slope of the linear portion of the amount transported-versus-time plot. A: Surface area of the intestine (cm^2) (0.18 cm as radius) and C0: Initial concentration of drug in the donor compartment (ng/mL).

in vitro = settings: rat
From the text: as §1, §2, §3, §4

chromosomes = system: chromosomes
Procedure: After completing the study, chromosomal slides were observed under 100×, and the % aberrated chromosomes were calculated.

[7] = high QC (nominal 200.50-201.50 ng/mL)
[8] = low QC (nominal 10.05-10.50 ng/mL)
[9] = rat plasma, high QC (nominal 200.50-201.50 ng/mL)
[10] = rat plasma, low QC (nominal 10.05-10.50 ng/mL)

## CC1=C(CO)C(=O)O[C@@H]([C@@H](C)[C@H]2CC[C@H]3[C@@H]4C[C@H]5O[C@]56[C@@H](O)C=CC(=O)[C@]6(C)[C@H]4CC[C@]23C)C1 [Withaferin A]
[1]; rat, plasma, po, 500 mg/kg
  AUC(0-inf): 188 ± 20.5 ng·h/mL
  AUC(0-t): 161 ± 18.9 ng·h/mL
  Cmax: 124 ± 64.9 ng/mL
  MRT inf: 3.85 ± 0.857 h
  Tmax: 0.25 h
  half-life: 3.15 ± 0.612 h
  k el: 6.28e-05 s⁻¹
[1]; rat, WSE 500 mg/kg oral single dose
  oral clearance (Cl/F): 0.026 ± 0.003 (mg/kg)/(ng/mL)/h
[2]; withaferin A 10 mg/kg oral dose, 5 mg/kg I.V. dose
  bioavailability: 32.4 ± 4.8%
[2]; withaferin A 10 mg/kg oral
  Cmax: 619 ± 125 ng/mL
  Tmax: 6.6 ± 4.2 min
  half-life: 7.6 ± 3.3 h
[3]
  AUC(0–t): 1.09 µM·h
  Clearance from plasma: 0.151 L/h
  Cmax: 1800 nM
  Tmax: 4.98 min
  plasma half-life: 1.36 h
[4]
  Tmax: 0.3333 h
  plasma half-life (t1/2): 0.9987 ± 0.265 h
[5]; [7]
  Processed sample stability (% ± SD): 99.56 ± 5.11%
[5]; [8]
  Processed sample stability (% ± SD): 103.30 ± 8.41%
[5]; [9]
  Bench top Stability (% ± SD): 94.72 ± 6.57%
  Autosampler stability (% ± SD): 108.40 ± 1.59%
  Freeze-thaw stability (% ± SD): 102.10 ± 5.76%
[5]; [10]
  Bench top Stability (% ± SD): 103.30 ± 8.41%
  Autosampler stability (% ± SD): 103.09 ± 4.95%
  Freeze-thaw stability (% ± SD): 103.41 ± 5.62%
[5]; rat plasma, −80 °C for 60 days, high QC (nominal 200.50-201.50 ng/mL), the values are: measured concentration
  Long-term stability (% ± SD): 204 ± 8.81 ng/mL
[6]
  Papp at 1 h, 2 mg/mL: 0.113 ×10⁻⁶ cm/s

## CC1=C(C)C(=O)O[C@@H]([C@@H](C)[C@H]2CC[C@H]3[C@@H]4[C@@H]5O[C@@H]5[C@@]5(O)CC=CC(=O)[C@]5(C)[C@H]4CC[C@]23C)C1 [Withanolide B]
In vitro
  Papp at 1 h, 2 mg/mL: 0.0131 ×10⁻⁶ cm/s
[5]; [7]
  Processed sample stability (% ± SD): 95.01 ± 5.83%
[5]; [8]
  Processed sample stability (% ± SD): 113.48 ± 47.73%
[5]; [9]
  Bench top Stability (% ± SD): 96.83 ± 6.66%
  Autosampler stability (% ± SD): 97.26 ± 3.36%
  Freeze-thaw stability (% ± SD): 93.48 ± 6.55%
[5]; [10]
  Bench top Stability (% ± SD): 95.51 ± 5.04%
  Autosampler stability (% ± SD): 98.84 ± 4.54%
  Freeze-thaw stability (% ± SD): 116.31 ± 36.76%

## O=P1(N(CCCl)CCCl)NCCCO1 (centres unmarked) [Cyclophosphamide]
chromosomes
  % Aberration: 52%
  MI mitotic index: 52
  RCG (%) relative cell growth: 112%
  RMI (%) relative mitotic index: 85%
  Ratio with Negative: 10.40

## CC1=C(C)C(=O)O[C@@H]([C@@H](C)[C@@]2(O)CC[C@H]3[C@@H]4[C@@H]5O[C@@H]5[C@@]5(O)CC=CC(=O)[C@]5(C)[C@H]4CC[C@@]32C)C1 [Withanone]
[1]; rat plasma after WSE 500 mg/kg oral, LLOQ 3 ng/mL
  concentration in plasma: below LLOQ
In vitro
  Papp at 1 h, 2 mg/mL: 0.0317 ×10⁻⁶ cm/s
[5]; [7]
  Processed sample stability (% ± SD): 99.56 ± 4.91%
[5]; [8]
  Processed sample stability (% ± SD): 112.07 ± 37.93%
[5]; [9]
  Bench top Stability (% ± SD): 98.87 ± 9.47%
  Autosampler stability (% ± SD): 111.25 ± 4.86%
  Freeze-thaw stability (% ± SD): 98.14 ± 4.74%
[5]; [10]
  Bench top Stability (% ± SD): 96.31 ± 6.27%
  Autosampler stability (% ± SD): 109.47 ± 4.01%
  Freeze-thaw stability (% ± SD): 104.24 ± 7.98%

## CC1=C(CO)C(=O)OC(C(C)C2CCC3C4C5OC5C5(O)CC=CC(=O)C5(C)C4CCC23C)C1 (centres unmarked) [12-Deoxy-withastramonolide]
[1]; rat, in vivo, po, 500 mg/kg
  AUC(0-inf): 92.3 ± 13.5 ng·h/mL
  AUC(0-t): 82.9 ± 7.82 ng·h/mL
  Cmax: 57.5 ± 7.52 ng/mL
  MRT inf: 2.34 ± 0.666 h
  Tmax: 0.291 ± 0.102 h
  half-life: 1.73 ± 0.505 h
  k el: 0.000121 s⁻¹
  oral clearance (Cl/F): 0.016 ± 0.002 (mg/kg)/(ng/mL)/h
In vitro
  Papp at 1 h, 2 mg/mL: 0.122 ×10⁻⁶ cm/s
[5]; [7]
  Processed sample stability (% ± SD): 92.99 ± 8.83%
[5]; [8]
  Processed sample stability (% ± SD): 121.14 ± 59.07%
[5]; [9]
  Bench top Stability (% ± SD): 95.97 ± 7.13%
  Autosampler stability (% ± SD): 108.67 ± 1.94%
  Freeze-thaw stability (% ± SD): 97.78 ± 4.28%
[5]; [10]
  Bench top Stability (% ± SD): 97.92 ± 7.04%
  Autosampler stability (% ± SD): 101.72 ± 3.25%
  Freeze-thaw stability (% ± SD): 101.34 ± 8.37%

## CC1=C(CO)C(=O)O[C@@H]([C@@H](C)[C@H]2CC[C@H]3[C@@H]4CC=C5C[C@@H](O[C@@H]6O[C@H](CO[C@@H]7O[C@H](CO)[C@@H](O)[C@H](O)[C@H]7O)[C@@H](O)[C@H](O)[C@H]6O)C[C@H](O)[C@]5(C)[C@H]4CC[C@]23C)C1 [Withanoside IV]
[1]; rat, in vivo, po, 500 mg/kg
  AUC(0-inf): 22.9 ± 5.73 ng·h/mL
  AUC(0-t): 14 ± 3.7 ng·h/mL
  Cmax: 13.8 ± 3.73 ng/mL
  MRT inf: 2.08 ± 0.394 h
  Tmax: 0.75 h
  half-life: 1.1 ± 0.272 h
  k el: 0.000182 s⁻¹
  Cl/F (oral clearance): 0.176 ± 0.037
  Vdapp (mean apparent volume of distribution): 0.278 ± 0.083
  oral clearance (Cl/F): 0.176 ± 0.037 (mg/kg)/(ng/mL)/h
In vitro
  Papp at 1 h, 2 mg/mL: 0.142 ×10⁻⁶ cm/s
[5]; [7]
  Processed sample stability (% ± SD): 101.10 ± 9.54%
[5]; [8]
  Processed sample stability (% ± SD): 104.41 ± 4.84%
[5]; [9]
  Bench top Stability (% ± SD): 100.34 ± 10.45%
  Autosampler stability (% ± SD): 111.61 ± 0.88%
  Freeze-thaw stability (% ± SD): 98.95 ± 5.47%
[5]; [10]
  Bench top Stability (% ± SD): 104.41 ± 4.84%
  Autosampler stability (% ± SD): 108.21 ± 2.00%
  Freeze-thaw stability (% ± SD): 104.78 ± 5.59%

## CC1=C(C)C(=O)O[C@@H]([C@@H](C)[C@H]2CC[C@H]3[C@@H]4CC=C5C[C@@H](O[C@@H]6O[C@H](CO[C@@H]7O[C@H](CO)[C@@H](O)[C@H](O)[C@H]7O)[C@@H](O)[C@H](O)[C@H]6O)C[C@H](O)[C@]5(C)[C@H]4CC[C@]23C)C1 [Withanoside V]
In vitro
  Papp at 1 h, 2 mg/mL: 0.0343 ×10⁻⁶ cm/s
[5]; [7]
  Processed sample stability (% ± SD): 90.47 ± 6.50%
[5]; [8]
  Processed sample stability (% ± SD): 134.85 ± 90.10%
[5]; [9]
  Bench top Stability (% ± SD): 91.74 ± 8.97%
  Autosampler stability (% ± SD): 111.25 ± 4.54%
  Freeze-thaw stability (% ± SD): 99.38 ± 6.58%
[5]; [10]
  Bench top Stability (% ± SD): 99.58 ± 8.68%
  Autosampler stability (% ± SD): 109.83 ± 8.35%
  Freeze-thaw stability (% ± SD): 105.13 ± 6.95%

## CC1=C(C)C(=O)O[C@@H]([C@](C)(O)[C@H]2CC[C@H]3[C@@H]4[C@@H]5O[C@@H]5[C@@]5(O)CC=CC(=O)[C@]5(C)[C@H]4CC[C@]23C)C1 [Withanolide A]
[1]; rat, in vivo, po, 500 mg/kg
  AUC(0-inf): 7.53 ± 1.83 ng·h/mL
  AUC(0-t): 4.18 ± 1.03 ng·h/mL
  Cmax: 7.28 ± 3.34 ng/mL
  MRT inf: 1.25 ± 0.571 h
  Tmax: 0.333 ± 0.129 h
  half-life: 0.728 ± 0.423 h
  k el: 0.000391 s⁻¹
  oral clearance (Cl/F): 0.356 ± 0.090 (mg/kg)/(ng/mL)/h
In vitro
  Papp at 1 h, 2 mg/mL: 0.0665 ×10⁻⁶ cm/s
[4]
  plasma half-life (t1/2): 0.7537 ± 0.166 h
[5]; [7]
  Processed sample stability (% ± SD): 99.36 ± 6.79%
[5]; [8]
  Processed sample stability (% ± SD): 128.43 ± 68.06%
[5]; [9]
  Bench top Stability (% ± SD): 103.63 ± 6.10%
  Autosampler stability (% ± SD): 105.04 ± 3.63%
  Freeze-thaw stability (% ± SD): 98.89 ± 4.24%
[5]; [10]
  Bench top Stability (% ± SD): 102.00 ± 7.99%
  Autosampler stability (% ± SD): 105.35 ± 3.83%
  Freeze-thaw stability (% ± SD): 102.18 ± 6.01%

Reference: publication PMC8912008, “Pharmacokinetic Study of Withanosides and Withanolides from Withania somnifera Using Ultra-High Performance Liquid Chromatography-Tandem Mass Spectrometry (UHPLC-MS/MS)” (Molecules, 2022)
